Laboratory results reported in US9771394B2, “Antimicrobial polymyxins for treatment of bacterial infections” (priority 2014, dated 2017).
Positions of bridges follow the written chain, without caps; N, C: chain ends. Non-standard residues stand in square brackets, D forms with d. Residues, ends and D or L forms follow the SMILES beside them. ξ: configuration not given here. *: point of attachment. X8 = NCC[C@H](OC(=O)Cc1ccc(-c2ccccc2)cc1)C(=O)*; X6 = NCC[C@H](OC(=O)c1ccc(-c2ccccc2)cc1)C(=O)*; X3 = CCCCCCCC(=O)O[C@@H](CCN)C(=O)*; Thr(3ξ) = CC(O)[C@H](N)C(=O)O; X7 = CC(=O)O[C@@H](CCN)C(=O)*; X1 = CCC(C)(C)C(=O)OCCC(=O)*; Dab = NCC[C@H](N)C(=O)O; Dap = NC[C@H](N)C(=O)O

Columns and labels:
[1] = system: P. aeruginosa PAE 1001; type: cell-based, Pseudomonas aeruginosa; conditions: PAE 1001, 24 h
From the text: (§1) In vitro activity of compounds provided herein may be assessed by standard testing procedures such as the determination of minimum inhibitory concentration (MIC, μg/mL) just as described in “Methods for Dilution Antimicrobial Susceptibility Tests for Bacteria That Grow Aerobically; Approved Standard—Ninth Edition,” published in 2012 by the Clinical and Laboratory Standards Institute, Wayne, Pa., USA. Thus, bacterial colonies grown overnight on Mueller-Hinton Agar plate were selected and suspended in sterile saline to a turbidity of about 80% transmittance, as measured by a spectrophotometer. The suspension was diluted 200-fold with cation-adjusted Mueller-Hinton broth to serve as the inoculum for testing. Two-fold serial dilutions of the test compound were performed in 96-well master plate to arrive at desired concentration. Samples of 10 microliter from each well of the master plate were transferred into respective wells of 96-well assay plate. Bacterial inoculum (90 microliter) was introduced into each well of the assay plate. The assay plate was placed in the incubator at 35° C. for about 24 h (without agitation) followed by the MIC determination. MIC values were determined based on the presence or absence of bacterial growth in wells at the given test agent concentration. MIC value is defined as the lowest concentration of test antibiotic that prevents visible bacterial growth.
(§2) The useful activity of exemplary compounds described herein against Gram-negative pathogens Pseudomonas aeruginosa, Escherichia coli, or Klebsiela pneumoniae is illustrated by the MIC data of Table 1.

[2] = system: E. coli WECO 1003; type: cell-based, Escherichia coli; conditions: WECO 1003, 24 h
From the text: as §1, §2

[3] = system: K. pneumoniae KPN1004; type: cell-based, Klebsiela pneumoniae; conditions: KPN1004, 24 h
From the text: as §1, §2

[4] = system: P. aeruginosa; test: P. aeruginosa thigh infection mouse model, IV dosing; type: in vivo, Pseudomonas aeruginosa; conditions: CFU change at 12 h vs no treatment control, PMB values in parenthesis side-by-side
From the text: A lower ED50 value indicates a higher therapeutic efficacy of the drug. The number of surviving animals (from the total number of infected animals used at a given drug dose) is another indicator of efficacy. […] In thigh and lung infection models, a greater reduction in the bacterial colony-forming units (CFU) indicates stronger beneficial therapeutic effect (more bacterial eradication), while a lower CFU reduction or an increase in CFU value indicates a lower effect (less bacterial eradication), or an absence of the therapeutic effect.

[5] = Stability in human plasma at 37° C.; type: in vitro ADME
Procedure: Exemplary compounds of this invention were tested for stability in human plasma at 37° C., replicating in vivo conditions of mammalian blood. Plasma stability for select compounds was performed as follows. Human plasma (K2 EDTA) was obtained from Bioreclamation. The assay was carried out in 96-well microtiter plates. Test compounds were incubated in duplicate at 37° C. in the presence of plasma. Reaction mixtures (25 μL) contained a final concentration of 25 μM test compound. The extent of metabolism was calculated as the disappearance of the test compound over time. Eucatropine was included as a positive control to verify assay performance. At each given time point, 100 μL of quench solution (100% MeCN with 0.1% HCOOH) with internal standard was transferred to each well. Plates were sealed, vortexed, and centrifuged at 4° C. for 15 minutes at 4,000 rpm. The supernatant was transferred to fresh plates for LC/MS/MS analysis. The formation of a potential metabolite was monitored in all samples. The samples were analyzed on LC/MS/MS using an AB Sciex API 4000 instrument, coupled to a Shimadzu LC-20AD LC Pump system. Analytical samples were separated using a Waters Atlantis T3 dC18 reverse phase HPLC column (20 mm×2.1 mm) at […] a flow rate of 0.5 mL/min, eluting with 0.1% aq. HCOOH and 0.1% HCOOH in MeCN (using gradient from 2% to 98% of the latter). Remaining test compounds were quantified via MS/MS ion current.

Compound | Antibacterial activity (MIC) P. aeruginosa PAE 1001 [1] | Antibacterial activity (MIC) E. coli WECO 1003 [2] | Antibacterial activity (MIC) K. pneumoniae KPN1004 [3] | P. aeruginosa Thigh model, IV dosing ΔlogCFU at 5 mg/kg [4] | formation of the expected metabolite (compound of Example 44) by MS analysis [5] | metabolism in human plasma [5] | remaining at 4 h, 25 μM ([5]; human, plasma)
CC(=O)O[C@@H](CCN)C(=O)N[C@H](C(=O)N[C@@H](CCN)C(=O)N[C@H]1CCNC(=O)[C@H](C(C)O)NC(=O)[C@H](CCN)NC(=O)[C@H](CCN)NC(=O)[C@H](CC(C)C)NC(=O)[C@@H](Cc2ccccc2)NC(=O)[C@H](CCN)NC1=O)C(C)O (stereo partly shown) [Example 43] (X7-[Thr(3ξ)][Dab][Dab][Dab][dF]L[Dab][Dab][Thr(3ξ)]; lactam 3-C) | 8 µg/mL | 8 µg/mL | >32 µg/mL |  |  |  | 
CCCCCCCC(=O)O[C@@H](CCN)C(=O)N[C@H](C(=O)N[C@@H](CCN)C(=O)N[C@H]1CCNC(=O)[C@H](C(C)O)NC(=O)[C@H](CCN)NC(=O)[C@H](CCN)NC(=O)[C@H](CC(C)C)NC(=O)[C@@H](Cc2ccccc2)NC(=O)[C@H](CCN)NC1=O)C(C)O (stereo partly shown) [Reference Example 1, reference compound] (X3-[Thr(3ξ)][Dab][Dab][Dab][dF]L[Dab][Dab][Thr(3ξ)]; lactam 3-C) | 8 µg/mL | 4 µg/mL | 2 µg/mL | −1.92 | no formation | no discernable metabolism | 100%
CC(C)C[C@@H]1NC(=O)[C@@H](Cc2ccccc2)NC(=O)[C@H](CCN)NC(=O)[C@@H](NC(=O)[C@H](CCN)NC(=O)[C@@H](NC(=O)[C@H](CCN)OC(=O)Cc2ccc(-c3ccccc3)cc2)C(C)O)CCNC(=O)[C@H](C(C)O)NC(=O)[C@H](CCN)NC(=O)[C@H](CCN)NC1=O (stereo partly shown) [Example 2] (X8-[Thr(3ξ)][Dab][Dab][Dab][dF]L[Dab][Dab][Thr(3ξ)]; lactam 3-C) | 4 µg/mL | 8 µg/mL | 2 µg/mL |  |  |  | 
CCC(C)(C)C(=O)OCCC(=O)N[C@@H](CN)C(=O)N[C@H](C(=O)N[C@@H](CCN)C(=O)N[C@H]1CCNC(=O)[C@H](C(C)O)NC(=O)[C@H](CCN)NC(=O)[C@H](CCN)NC(=O)[C@H](CC(C)C)NC(=O)[C@@H](Cc2ccccc2)NC(=O)[C@H](CCN)NC1=O)C(C)O (stereo partly shown) [Example 35] (X1-[Dap][Thr(3ξ)][Dab][Dab][Dab][dF]L[Dab][Dab][Thr(3ξ)]; lactam 4-C) | 4 µg/mL | 1 µg/mL | 4 µg/mL |  |  |  | 
CC(C)C[C@@H]1NC(=O)[C@@H](Cc2ccccc2)NC(=O)[C@H](CCN)NC(=O)[C@@H](NC(=O)[C@H](CCN)NC(=O)[C@@H](NC(=O)[C@H](CCN)OC(=O)c2ccc(-c3ccccc3)cc2)C(C)O)CCNC(=O)[C@H](C(C)O)NC(=O)[C@H](CCN)NC(=O)[C@H](CCN)NC1=O (stereo partly shown) [Example 3] (X6-[Thr(3ξ)][Dab][Dab][Dab][dF]L[Dab][Dab][Thr(3ξ)]; lactam 3-C) | 4 µg/mL | 4 µg/mL | 4 µg/mL |  |  |  | 
